# Test system: hESC3 Nkx2.5eGFP/w cells
# Experiment: Differentiation in 96-U bottom ultra-low attachment well plates, GFP area imaging
# Assay type: cell-based, human
# Conditions: 5 μM; for Average GFP %: after CHIR99021, read on day 14, GFP area over embryoid body size; for Average GFP μm^2 / Average Area μm^2: day 14; for Average Area μm^2: embryoid body size
Structure (SMILES),Average GFP % (Induction Day 2),Average GFP μm^2 (Induction Day 2),Average Area μm^2 (Induction Day 2),Average GFP % (Induction Day 3),Average GFP μm^2 (Induction Day 3),Average Area μm^2 (Induction Day 3),Cardiogenic properties (at specific time course (induction day 2 or 3))
"O=C(Nc1cccc2cccnc12)c1ccc(N2C(=O)[C@@H]3[C@H](C2=O)[C@@H]2C=C[C@H]3C2)cc1 [IWR-1, reference compound]",41.3%,308.9 μm^2,763.0 μm^2,51.1%,426.3 μm^2,831.4 μm^2,–
"O=[N+]([O-])c1cccc(Cl)c1-c1nc(-c2ccc(F)cc2)c(-c2ccncc2)[nH]1 [ZQX-25, 4-[2-(2-chloro-6-nitrophenyl)-4(5)-(4-fluorophenyl)-1H-imidazol-5(4)-yl]pyridine]",0.0%,0.0 μm^2,544.3 μm^2,15.6%,163.6 μm^2,1105.4 μm^2,–
"Cc1ccccc1-c1nc(-c2ccc(F)cc2)c(-c2ccncc2)[nH]1 [ZQX-29, 4-[4(5)-(4-fluorophenyl)-2-(2-methylphenyl)-1H-imidazol-5(4)-yl]pyridine]",28.6%,277.1 μm^2,876.4 μm^2,2.7%,39.9 μm^2,1296.6 μm^2,–
"O=[N+]([O-])c1ccccc1-c1nc(-c2ccc(F)cc2)c(-c2ccncc2)[nH]1 [ZQX-27, 4-[4(5)-(4-fluorophenyl)-2-(2-nitrophenyl)-1H-imidazol-5(4)-yl]pyridine]",15.1%,258.6 μm^2,1469.4 μm^2,3.4%,57.9 μm^2,1758.3 μm^2,–
"Fc1ccc(-c2nc(-c3ccccc3Cl)[nH]c2-c2ccncc2)cc1 [ZQX-17, 4-[2-(2-chlorophenyl)-4(5)-(4-fluorophenyl)-1H-imidazol-5(4)-yl]pyridine]",30.4%,183.0 μm^2,586.7 μm^2,24.6%,232.7 μm^2,971.6 μm^2,–
"COc1cc(O)c(-c2nc(-c3ccc(F)cc3)c(-c3ccncc3)[nH]2)c(OC)c1 [ZQX-26, 2-[4(5)-(4-fluorophenyl)-5(4)-(pyridin-4-yl)-1H-imidazol-2-yl]-3,5-dimethoxyphenol]",30.9%,233.9 μm^2,757.8 μm^2,8.3%,88.2 μm^2,1152.7 μm^2,–
"Fc1ccc(-c2nc(-c3c(F)cccc3Cl)[nH]c2-c2ccncc2)cc1 [ZQX-19, 4-[2-(2-chloro-6-fluorophenyl)-4(5)-(4-fluorophenyl)-1H-imidazol-5(4)-yl]pyridine]",2.4%,46.4 μm^2,903.3 μm^2,32.7%,511.6 μm^2,1616.9 μm^2,higher cardiogenic properties as SB203580 and IWP-2
"Fc1ccc(-c2nc(-c3ccccc3)[nH]c2-c2ccncc2)cc1 [ZQX-14, 4-[4(5)-(4-fluorophenyl)-2-phenyl-1H-imidazol-5(4)-yl]pyridine]",42.4%,335.6 μm^2,810.7 μm^2,5.9%,91.6 μm^2,1474.4 μm^2,–
"COc1ccc([N+](=O)[O-])cc1-c1nc(-c2ccc(F)cc2)c(-c2ccncc2)[nH]1 [ZQX-32, 4-[2-(2-methoxy-5-nitrophenyl)-4(5)-(4-fluorophenyl)-1H-imidazol-5(4)-yl]pyridine]",32.8%,157.6 μm^2,483.6 μm^2,4.6%,41.0 μm^2,790.4 μm^2,–

# — patent US10865384B2, “2,4,5-tri-substituted azole-based casein kinase 1 inhibitors as inducers for cardiomyogenesis” (AGENCY FOR SCIENCE, TECHNOLOGY AND RESEARCH, priority 2014, dated 2020)
